Values of other authors as cited in patent US8748497B2, “Optimized fluorocarbon emulsions for blood substitutes and other therapeutic uses” (Alliance Pharmaceutical Corp., priority 2006, dated 2014).

Conditions: components of FLUOSOL; cited from earlier work

| Compound | rate constant for RES elimination (k24) [day⁻¹] |
| --- | --- |
| FC1(F)C(F)(F)C(F)(F)C2(F)C(F)(F)C(F)(F)C(F)(F)C(F)(F)C2(F)C1(F)F (centres unmarked) [F-decalin, perfluorodecalin] | 0.10 |
| FC(F)(F)C(F)(F)C(F)(F)N(C(F)(F)C(F)(F)C(F)(F)F)C(F)(F)C(F)(F)C(F)(F)F [F-tripropylamine, perfluorotripropylamine] | 0.011 |
